Experimental data taken from ChEMBL document CHEMBL1133120, “Synthesis and evaluation of isothiocyanate-containing derivatives of the delta-opioid receptor antagonist Tyr-Tic-Phe-Phe (TIPP) as potential affinity labels for delta-opioid receptors” (J Med Chem, 2000).
Where a SMILES comes first, the peptide text is derived from it. [ ]: non-standard residue; d: D form. Phe(4-NH2) = Nc1ccc(C[C@H](N)C(=O)O)cc1; Tic = O=C(O)[C@@H]1Cc2ccccc2CN1

Key:
[1] = molecular target: Mu-type opioid receptor (Rattus norvegicus, UniProt P33535); assay: Binding assay evaluated using DAMGO radioligand in CHO cells transfected with rat Opioid receptor mu 1; format: cell-based
[2] = molecular target: Delta-type opioid receptor (Mus musculus, UniProt P32300); assay: Binding assay evaluated using […] radioligand in CHO cells transfected with mouse Opioid receptor delta 1; format: cell-based
Chain of Delta-type opioid receptor (P32300 whole entry): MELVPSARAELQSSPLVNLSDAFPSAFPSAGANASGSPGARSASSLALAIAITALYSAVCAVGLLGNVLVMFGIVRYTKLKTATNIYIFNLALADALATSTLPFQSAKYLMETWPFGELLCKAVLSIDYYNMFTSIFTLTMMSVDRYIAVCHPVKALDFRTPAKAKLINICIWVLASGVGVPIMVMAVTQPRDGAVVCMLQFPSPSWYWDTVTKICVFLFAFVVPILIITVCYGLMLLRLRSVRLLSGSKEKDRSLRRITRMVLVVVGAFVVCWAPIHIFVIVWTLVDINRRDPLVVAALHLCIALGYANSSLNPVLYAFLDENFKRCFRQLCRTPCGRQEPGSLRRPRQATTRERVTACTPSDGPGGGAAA

Chain of Mu-type opioid receptor (P33535 whole entry): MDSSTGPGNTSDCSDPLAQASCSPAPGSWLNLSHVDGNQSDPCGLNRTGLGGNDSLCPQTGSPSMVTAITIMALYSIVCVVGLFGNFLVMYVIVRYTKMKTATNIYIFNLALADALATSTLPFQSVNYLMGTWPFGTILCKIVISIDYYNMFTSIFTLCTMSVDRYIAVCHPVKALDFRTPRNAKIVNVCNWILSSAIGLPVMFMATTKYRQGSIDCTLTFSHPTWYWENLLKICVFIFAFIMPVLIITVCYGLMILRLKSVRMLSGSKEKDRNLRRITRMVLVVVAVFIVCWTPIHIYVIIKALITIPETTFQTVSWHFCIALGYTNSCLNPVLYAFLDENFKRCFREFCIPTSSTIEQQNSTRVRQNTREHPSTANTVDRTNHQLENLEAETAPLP

Compound	IC50 [1]	IC50 [2]
N[C@@H](Cc1ccc(O)cc1)C(=O)N1Cc2ccccc2C[C@H]1C(=O)N[C@@H](Cc1ccc(N=C=S)cc1)C(=O)N[C@@H](Cc1ccccc1)C(=O)O	> 10000 nM	12.4 nM
N[C@@H](Cc1ccc(O)cc1)C(=O)N1Cc2ccccc2C[C@H]1C(=O)N[C@@H](Cc1ccccc1)C(=O)N[C@@H](Cc1ccc(N=C=S)cc1)C(=O)O	> 10000 nM	5.4 nM
N[C@@H](Cc1ccc(O)cc1)C(=O)N1Cc2ccccc2C[C@H]1C(=O)N[C@@H](Cc1ccccc1)C(=O)N[C@@H](Cc1ccccc1)C(=O)O (H-Y[Tic]FF-OH)	22700 nM	5.8 nM
Nc1ccc(C[C@H](NC(=O)[C@H](Cc2ccccc2)NC(=O)[C@@H]2Cc3ccccc3CN2C(=O)[C@@H](N)Cc2ccc(O)cc2)C(=O)O)cc1 (H-Y[Tic]F[Phe(4-NH2)]-OH)	> 10000 nM	11.8 nM
Nc1ccc(C[C@H](NC(=O)[C@@H]2Cc3ccccc3CN2C(=O)[C@@H](N)Cc2ccc(O)cc2)C(=O)N[C@@H](Cc2ccccc2)C(=O)O)cc1 (H-Y[Tic][Phe(4-NH2)]F-OH)	> 10000 nM	87.7 nM
